Reference: article PMC10746280, “Bacterial efflux pump modulators prevent bacterial growth in macrophages and under broth conditions that mimic the host environment” (mBio, 2023)

Assays:
[1] = test system: S. Typhimurium; experiment: Checkerboard growth assays with antibiotics in LPM 5.5 (FICI and MuSyC analyses); format: cell-based; set-up: Antibiotic MIC Combination: unit not given here; EPM MIC Combination: unit: µM; conditions: for log10(α1) [95% CI] (log-fold-change in potency of EPM due to the antibiotic) / log10(α2) [95% CI] (log-fold-change in potency of the antibiotic due to the EPM) / Βobs [95% CI] (proportion increase in maximal efficacy of the antibiotic): MuSyC fit; for Antibiotic MIC Combination / EPM MIC Combination / FICI value: LPM 5.5
Procedure: To examine whether the EPM analogs interact additively or synergistically with antibiotics, checkerboard growth assays were carried out in LPM 5.5. We compared three antibiotics (ciprofloxacin, doxycycline, erythromycin) and three EPM analogs (CU032, CU187, CU232) and the EPM35 parent compound (Fig. 6A). Standard fractional inhibitory concentration index (FICI) analyses supported synergy between the EPM analogs and ciprofloxacin (Fig. 6B). Since FICI values cannot distinguish between synergy due to changes in potency (activity) versus efficacy (the extent of the effect) ([42], [43]), we used the MuSyC synergy algorithm to measure EPM-antibiotic synergy ([44], [45]). The data were well fit by the MuSyC equation, with an R^2 of greater than 0.96 for all checkerboards (Table S2). […] Moreover, the consistency in the synergy of potency values across the antibiotics with different EPM analogs points toward a shared mechanism of action: the EPMs could modify the pharmacodynamics of the efflux process and prevent export of specific substrates through interactions with AcrB. We posit that the EPMs differentially reduce antibiotic export resulting in a higher effective intracellular concentration of the antibiotic.
Overnight cation-adjusted MHB-grown cultures of SL1344 or SA10801 were diluted in MHB or LPM 5.5 to an optical density at 600 nm (OD600) of 0.01 and distributed into polystyrene 96-well flat-bottom plates. EPM analogs were added at concentrations up to 300 µM, near the limit of solubility. The antibiotics ciprofloxacin, doxycycline, and erythromycin were added up to concentrations of 2 µM, 2 µM, and 8 µM, respectively. The final DMSO concentration was at or below 2% in all wells. Plates were grown at 37°C with shaking for 18 h and OD600 was monitored (BioTek Synergy H1, BioTek Eon). Each experiment was performed with biological triplicate or higher as indicated. Percent growth was determined by normalizing to OD600 reads in wells containing no D66 or antibiotic. Checkerboards in LPM 5.5 medium were performed with culture grown overnight in LB and diluted to an OD600 of 0.01 in LPM 5.5 and compounds/antibiotics were added as previously described. MuSyC analysis was pursued as previously described ([44], [45]). Briefly, the 2D Hill equation was fit to the normalized growth inhibition data from the checkerboards using a bounded non-linear least square regression algorithm. A Monte Carlo sampling method was used to compute the 95% CI in the parameter fits from three biological replicates. The bounds on the parameters minimal and maximal efficacy of the antibiotics and EPMs (E0,Emax) were [0.99,1.01] and [0,1], respectively ([44], [45]).

[2] = test system: S. Typhimurium SL1344 (sifB::gfp) in RAW 264.7 macrophages; experiment: SAFIRE macrophage assay: intracellular bacterial load (GFP signal within macrophages); format: cell-based, Salmonella enterica serotype Typhimurium; conditions: for IC50: Salmonella enterica, TYPHIMURIUM, RAW264.7, read-out: SAFIRE IC50
Method in brief: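 RAW 264.7 macrophages infected with S. Typhimurium SL1344 sifB::gfp (MOI ~30), gentamicin 40 µg/mL, then compound from 2 h to 18 h post-infection. Confocal imaging with MitoTracker and DAPI; toxicity as adherent MitoTracker-positive macrophage count, bacterial load as GFP+ macrophage area.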

[3] = ciprofloxacin (CIPRO) MIC in combination with the EPM
[4] = doxycycline (DOXY) MIC in combination with the EPM
[5] = 5 uM compound, n=1, DMSO solvent control = 98, rifampicin 2 μg/mL = 65
[6] = 25 uM compound, n=1, DMSO solvent control = 98, rifampicin 2 μg/mL = 65
[7] = 25 uM, 'Toxic' given instead of a score

SMILES	log10(α1) [95% CI] (log-fold-change in potency of EPM due to the antibiotic) ([1]; Ciprofloxacin)	log10(α2) [95% CI] (log-fold-change in potency of the antibiotic due to the EPM) ([1]; Ciprofloxacin)	Βobs [95% CI] (proportion increase in maximal efficacy of the antibiotic) ([1]; Ciprofloxacin)	log10(α1) [95% CI] (log-fold-change in potency of EPM due to the antibiotic) ([1]; Doxycycline)	log10(α2) [95% CI] (log-fold-change in potency of the antibiotic due to the EPM) ([1]; Doxycycline)	Βobs [95% CI] (proportion increase in maximal efficacy of the antibiotic) ([1]; Doxycycline)	log10(α1) [95% CI] (log-fold-change in potency of EPM due to the antibiotic) ([1]; Erythromycin)	log10(α2) [95% CI] (log-fold-change in potency of the antibiotic due to the EPM) ([1]; Erythromycin)	Βobs [95% CI] (proportion increase in maximal efficacy of the antibiotic) ([1]; Erythromycin)	Antibiotic MIC Combination [1, 3]	Antibiotic MIC Combination [1, 4]	EPM MIC Combination ([1]; with ciprofloxacin (CIPRO))	FICI value ([1]; with ciprofloxacin (CIPRO))	EPM MIC Combination ([1]; with doxycycline (DOXY))	FICI value ([1]; with doxycycline (DOXY))	EPM MIC Combination ([1]; with erythromycin (ERY))	FICI value ([1]; with erythromycin (ERY))	5 uM Avg Antibacterial Score [2, 5]	25 uM Avg Antibacterial Score [2, 6]	IC50 [2] [nM]	further results
NC1CCN(CC(O)COc2cccc(C(F)(F)F)c2)CC1 (stereo not drawn) [CU232]	0.34 [0.18,0.38]	1.87 [1.73,1.85]	0.0 [-0.02,0.03]	0.14 [-0.23,0.33]	0.16 [0.06,0.19]	0.02 [-0.01,0.02]	-0.02 [-0.35,-0.05]	1.38 [1.11,1.44]	0.06 [0.05,0.07]	1	2	44	0.4	100	0.58	100	0.58	37	21	6.9	
OC(COc1ccc(Cl)c(Cl)c1)CN1CCC(Nc2nccc(C(F)(F)F)n2)CC1 (stereo not drawn) [EPM35]	0.58 [0.17,0.77]	-0.12 [-0.22,0.03]	0.01 [-0.01,0.01]	0.7 [0.41,0.87]	0.43 [0.31,0.39]	-0.01 [-0.04,-0.01]	0.49 [0.15,0.74]	-0.01 [-0.06,0.03]	0.01 [-0.01,0.01]	1	2	150	0.7	150	1	150	1			3450	synergy with antibiotics ([1]; checkerboards in LPM 5.5): did not synergize with the antibiotics; 25 uM Avg Antibacterial Score [2, 7]: Toxic
NC1CCN(CC(O)COc2ccc(Cl)c(Cl)c2)C1 (stereo not drawn) [CU032]	0.0 [-0.42,0.07]	1.52 [1.32,1.56]	0.07 [0.05,0.1 ]	-0.06 [-0.3,0.04]	0.25 [0.17,0.28]	0.0 [-0.01,0.01]	0.08 [-0.23,0.05]	1.11 [0.98,1.11]	0.04 [0.04,0.07]	1	2	30	0.35	100	0.55	100	0.58			17.4	5 uM Avg Antibacterial Score ([2]; 5 uM, 'Toxic' given instead of a score): 55; 25 uM Avg Antibacterial Score [2, 7]: 21
OC(CN[C@H]1[C@@H]2CNC[C@@H]21)COc1cc(Cl)cc(Cl)c1 (stereo partly drawn) [CU244]																		48	19	372	
